Legend:
[1] = biological target: T1, hFAPα, recombinant protein (Homo sapiens, UniProt Q12884); test: fluorometric enzyme inhibition assay for FAP; type: biochemical; settings: Morrison equation for tight binding inhibitors; substrate Ala-Pro-AMC; mean ± SD
T1 construct: purchased
T1 sequence (Q12884 1-760): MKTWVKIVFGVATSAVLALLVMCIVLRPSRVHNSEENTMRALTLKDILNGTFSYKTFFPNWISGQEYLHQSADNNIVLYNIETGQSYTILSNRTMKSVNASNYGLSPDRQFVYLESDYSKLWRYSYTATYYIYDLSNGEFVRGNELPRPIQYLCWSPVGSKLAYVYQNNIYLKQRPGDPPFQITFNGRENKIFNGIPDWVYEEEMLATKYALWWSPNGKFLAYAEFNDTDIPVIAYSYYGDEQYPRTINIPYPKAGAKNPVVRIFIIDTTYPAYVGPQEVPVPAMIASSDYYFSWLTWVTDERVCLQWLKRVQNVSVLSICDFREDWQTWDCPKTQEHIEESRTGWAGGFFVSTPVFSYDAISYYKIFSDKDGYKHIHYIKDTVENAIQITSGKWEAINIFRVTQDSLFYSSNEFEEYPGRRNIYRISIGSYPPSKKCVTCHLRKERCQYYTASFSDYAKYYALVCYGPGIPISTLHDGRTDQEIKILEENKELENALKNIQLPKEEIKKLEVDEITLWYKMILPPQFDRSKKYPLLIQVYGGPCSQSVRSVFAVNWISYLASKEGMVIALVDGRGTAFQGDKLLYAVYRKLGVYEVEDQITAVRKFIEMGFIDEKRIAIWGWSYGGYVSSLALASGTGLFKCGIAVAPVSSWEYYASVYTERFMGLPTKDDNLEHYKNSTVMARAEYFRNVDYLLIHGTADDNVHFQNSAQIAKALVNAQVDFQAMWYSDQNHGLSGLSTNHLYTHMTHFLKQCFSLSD
Experimental: Affinity towards FAP was tested using a commercially available fluorometric assay. At the day of the experiment, all tested compounds were diluted in assay buffer (DPP assay buffer, BPS Bioscience, San Diego, CA, USA,) in a 1:1 dilution series, resulting in eleven concentrations, ranging from 2000 nM to 1.950 nM, equal to 200 nM to 0.195 nM per well. The substrate Ala-Pro-AMC (BPS Bioscience, concentration per well: 5 μM, Km = 244 μM (Edosada et al. [2006])) was pipetted along with the inhibitor into a 96-well plate. Subsequently, the enzyme (hFAPα, recombinant protein) was dissolved in assay buffer and added to the wells. The final concentration of DMSO per well was 0.2%. The 96-well plate was immediately loaded into a multimode plate reader (Biotek Cytation 5, Agilent, Santa Clara, CA, USA). The fluorescence intensity for each well was measured over a time course of 30 min with measurement intervals of 15 s, an excitation wavelength of 360 ± 20 nm and an emission wavelength of 450 ± 20 nm. Data (relative fluorescence units, RFU) over the total measurement time was analyzed by linear regression. The slope of the resulting graphs was analyzed over the inhibitor concentration. The enzyme inhibition constant Ki was calculated using the Morrison equation for tight binding inhibitors (Williams and Morrison [1979]). […]

[2] = biological target: T2, human recombinant dipeptidylpeptidase IV (Homo sapiens, UniProt P27487); test: fluorometric enzyme inhibition assay for DPPIV; type: biochemical
T2 construct: purchased Cayman Chemical
Experimental: The affinity towards DPPIV was determined using a commercially available inhibitor screening assay kit (Cayman Chemical, USA). The assay was performed according to the manufacturer’s instructions, and the data was analyzed as described above.

[3] = biological target: T3, hFAP (vital hFAP-HT1080 cells) (Homo sapiens, UniProt Q12884); test: real-time binding (LigandTracer) to vital hFAP-HT1080 cells; settings: fluorescent vs radioactive detection
T3 construct: expressed in transfected cells; host or cells: HT1080 (human fibrosarcoma), lentiviral transduction
T3 sequence (Q12884 1-760): T1 sequence (Q12884 1-760)
Experimental: To determine binding kinetics (association rate constant ka, dissociation rate constant kd, and thermodynamic dissociation constant KD), real-time assay systems (LigandTracer Yellow/White for radioactivity and Green with Red/NIR + and NIR + + /IR detectors for fluorescence; Ridgeview Instruments AB, Sweden) were utilized. In a 100 mm petri dish, cells or tissue sections in medium (3–4 mL total volume), are located on one side, while the radioactive or fluorescent signal is detected on the opposite, elevated side. Rotation on an inclined base in set intervals (30 s) allows continuous measurement of signal in the target (cells/tissue) against background area (no cells/tissue). Experiments were performed at room temperature, using CO2-independent medium, usually with 0.5–1% w/v bovine serum albumin, (#1ETA, Carl Roth, Germany). Association was determined through incubation with two distinct concentrations (between 1–5 and 4.5–10 nM, 60 min each, additive) for each compound. For that purpose, the same ligand preparation was typically employed for radioactive and fluorescent detection. This was followed by replacement with fresh medium and observation of dissociation for at least 2 h. Additionally, the dissociation rate constant was further investigated beyond 6 h, either using fluorescent detection or via gallium-67 (t1/2: 78.3 h). This approach provides reliable kinetic measurements in a 1:1 interaction setting, as previously shown (Onell and Andersson [2005]).
Binding data was evaluated using TraceDrawer (1.9.2, Ridgeview Instruments AB, Sweden). Traces were imported, potential spikes (> 100% sudden signal increases over previous datapoints) removed and each trace was normalized to its own baseline (= 0%) and highest value (= 100%, typically at the end of the second association phase). This allows comparing data across experiments and ultimately global fitting, without differences, e.g. of molar activity, affecting it. Typically, at least 3 individual traces per ligand, substrate and modality were recorded. Data was fitted in TraceDrawer using a 1:1 interaction model, with/without accounting for bulk effect. A 1:1 interaction is the simplest model, as it describes the binding of a ligand at a constant concentration to the target, with each one molecule of ligand binding to one molecule of target.

[4] = system: hFAP-HT1080 and WT-HT1080 xenografts; test: in vivo fluorescence imaging of xenograft-bearing mice; design: species or system nude mice
Description: Female athymic NMRI-nude mice (Rj:NMRI-Foxn1nu, Janvier Labs, France or Charles River, Germany) between 8 and 20 weeks of age were used. Subsequently, the prepared cells (1.0–2.0 × 10^6 hFAP/WT-HT1080 per animal) were subcutaneously injected into the right and left thigh, respectively. Xenograft tissue for real-time binding experiments was derived from animals injected with both target-positive and negative cells, however only showing growth of one tumor entity. When approaching endpoints, mice were anesthetized and euthanized. The tumor was quickly removed, frozen in − 45 °C 2-methylbutane and stored in sealed tubes at − 80 °C.
Optical imaging was performed using a multimodal IVIS-CT (Perkin Elmer, USA). Compounds were injected [0.09 mg/kg (n = 1)/0.33 mg/kg (n = 3) for NODAGA-FAP647; 0.17 mg/kg (n = 3) for NODAGA-FAP800, diluted in 150 µL of sterile 0.9% NaCl solution] into the lateral tail vein, either directly or via catheter. Fluorescence imaging started ~ 2 min post injection for 2–3 h, with 1 min, 3–5 min and 10 min intervals, along with a white-light image. Additional scans were performed after 24 h and, if applicable, later. The fluorescence of the respective fluorophore was captured (NODAGA-FAP647: λEx/Em = 640/680 nm, NODAGA-FAP800: λEx/Em = 745/800 nm). Emitted fluorescence intensity was analyzed (Perkin Elmer, Living Image 4.7.4) in raw data images.

[5] = biological target: T4, hFAP (hFAP-HT1080 xenograft tissue sections) (Homo sapiens, UniProt Q12884); test: real-time binding to frozen hFAP-HT1080 xenograft tissue sections; settings: ^67Ga-labeled
T4 construct: expressed in transfected cells; host or cells: HT1080 (human fibrosarcoma), lentiviral transduction
T4 sequence (Q12884 1-760): T1 sequence (Q12884 1-760)
Experimental: HT1080 cells were chosen as cellular and xenograft models, due to their similarity to FAP expressing fibroblasts and its origin (fibrosarcoma). For that purpose, HT1080 wild-type cells (WT-HT1080; European Collection of Authenticated Cell Cultures, ECACC, United Kingdom) were used as control. Cells were cultured in DMEM with GlutaMax (#31966021, Gibco), supplemented with 10% v/v fetal bovine serum (#S0615 Sigma Aldrich, Germany), 1% penicillin/streptomycin (#15140–122, Gibco, USA), 1% Non-essential amino acids under normoxic (5% CO2; 37 °C) conditions. Upon reaching ~ 90% confluency, cells were passaged. Typically, cultures were discarded after ~ 20 passages. […] Prior to in vitro experiments, cells were washed, trypsinized (0.05% Trypsin–EDTA, Gibco, USA), taken up in medium and an aliquot was counted using a CASY1 cell counter (Model TT, Schaerfe System, Reutlingen, Germany). […]
To determine binding kinetics (association rate constant ka, dissociation rate constant kd, and thermodynamic dissociation constant KD), real-time assay systems (LigandTracer Yellow/White for radioactivity and Green with Red/NIR + and NIR + + /IR detectors for fluorescence; Ridgeview Instruments AB, Sweden) were utilized. In a 100 mm petri dish, cells or tissue sections in medium (3–4 mL total volume), are located on one side, while the radioactive or fluorescent signal is detected on the opposite, elevated side. […]

[6] = stability in human serum; type: in vitro ADME; settings: 37 °C; for degradation in human serum: four-hour time point; for fraction of intact tracer: human serum, after 24 h
Experimental: Stability testing in human serum (Sigma Aldrich, Darmstadt, Germany) was carried out by incubation of the ^67Ga-labeled radiotracer at 37 °C. After defined time points an aliquot was withdrawn and the serum proteins precipitated, by dilution with “supersol” (20% v/v ethanol, 5% v/v 5 mM EDTA, 0.5% v/v Triton X-100, 0.1% m/v saponin in aqueous solution). After centrifugation, the supernatant was analyzed by radio-HPLC.

T2 sequence (P27487 whole entry): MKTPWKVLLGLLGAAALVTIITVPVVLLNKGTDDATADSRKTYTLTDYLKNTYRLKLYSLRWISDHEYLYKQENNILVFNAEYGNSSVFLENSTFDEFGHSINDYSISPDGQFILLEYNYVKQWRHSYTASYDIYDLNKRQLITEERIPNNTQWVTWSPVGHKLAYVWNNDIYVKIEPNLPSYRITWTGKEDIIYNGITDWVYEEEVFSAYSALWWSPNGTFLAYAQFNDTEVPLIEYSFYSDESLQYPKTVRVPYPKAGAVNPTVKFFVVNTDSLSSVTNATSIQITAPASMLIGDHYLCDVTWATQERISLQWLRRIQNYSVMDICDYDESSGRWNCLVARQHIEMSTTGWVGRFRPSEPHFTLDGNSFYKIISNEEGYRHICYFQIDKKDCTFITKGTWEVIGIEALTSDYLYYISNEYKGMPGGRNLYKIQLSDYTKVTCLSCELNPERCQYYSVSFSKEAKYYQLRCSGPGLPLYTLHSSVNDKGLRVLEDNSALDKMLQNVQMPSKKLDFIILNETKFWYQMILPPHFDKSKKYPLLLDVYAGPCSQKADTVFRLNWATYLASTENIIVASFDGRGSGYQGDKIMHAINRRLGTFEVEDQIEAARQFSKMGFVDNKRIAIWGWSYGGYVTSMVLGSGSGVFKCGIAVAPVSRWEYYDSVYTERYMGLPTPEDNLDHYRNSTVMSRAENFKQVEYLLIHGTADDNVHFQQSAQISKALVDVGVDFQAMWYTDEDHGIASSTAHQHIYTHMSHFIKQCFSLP

## CN(CCCN1CCN(C(=O)[C@H](CCCCNC(=O)CC[C@H](C(=O)O)N2CCN(CC(=O)O)CCN(CC(=O)O)CC2)NC(=O)CCOCCOCCOCCOCCNC(=O)CCCCCN2/C(=C/C=C3\CCCC(/C=C/C4=[N+](CCCCS(=O)(=O)[O-])c5ccc(S(=O)(=O)O)cc5C4(C)C)=C3Oc3ccc(S(=O)(=O)O)cc3)C(C)(C)c3cc(S(=O)(=O)O)ccc32)CC1)c1ccc2nccc(C(=O)NCC(=O)N3CC(F)(F)C[C@H]3C#N)c2c1 [NODAGA-FAP800]
[1]
  Ki: 0.343 ± 0.153 nM
[2]
  IC50: > 10000 nM
[3]
  faster association with fluorescent compared to radioactive detection: ~ 50%
  faster dissociation with fluorescent compared to radioactive detection: ~ 30%
[4]; 120 min post injection
  ratio hFAP-HT1080/muscle fluorescence: ~ 1.9
  ratio hFAP/WT-HT1080 tumor fluorescence: ~ 2.2
[4]; 24 h post injection
  fluorescence in hFAP-HT1080 tumor higher than in WT-HT1080 tumor or muscle: 60%
[4]; after 24 h post injection
  reduction of fluorescence signal in hFAP-HT1080 tumor: 43%
[4]; over the imaging period
  WT-HT1080 to muscle ratio: ~ 1
[4]; post injection
  time to plateau of fluorescence in hFAP-HT1080 tumor: ~ 20 min

## CN(CCCN1CCN(C(=O)[C@H](CCCCNC(=O)CC[C@H](C(=O)[O-])N2CCN(CC(=O)[O-])CCN(CC(=O)[O-])CC2)NC(=O)CCOCCOCCOCCOCCNC(=O)CCCCC[N+]2=C(C=CC=CC=C3N(CCCS(=O)(=O)O)c4ccc(S(=O)(=O)O)cc4C3(C)C)C(C)(CCCS(=O)(=O)O)c3cc(S(=O)(=O)[O-])ccc32)CC1)c1ccc2nccc(C(=O)NCC(=O)N3CC(F)(F)C[C@H]3C#N)c2c1.[67Ga+3] (stereo partly shown) [[^67Ga]Ga-NODAGA-FAP647]
[5]
  Kd: 0.025 nM
[6]
  degradation in human serum: no degradation
  fraction of intact tracer: 56%

## CN(CCCN1CCN(C(=O)[C@H](CCCCNC(=O)CC[C@H](C(=O)[O-])N2CCN(CC(=O)[O-])CCN(CC(=O)[O-])CC2)NC(=O)CCOCCOCCOCCOCCNC(=O)CCCCCN2C(=CC=C3CCCC(C=CC4=[N+](CCCCS(=O)(=O)[O-])c5ccc(S(=O)(=O)O)cc5C4(C)C)=C3Oc3ccc(S(=O)(=O)O)cc3)C(C)(C)c3cc(S(=O)(=O)O)ccc32)CC1)c1ccc2nccc(C(=O)NCC(=O)N3CC(F)(F)C[C@H]3C#N)c2c1.[67Ga+3] [[^67Ga]Ga-NODAGA-FAP800]
[5]
  Kd: 0.018 nM
[6]
  degradation in human serum: no degradation
  fraction of intact tracer: 22%
